These results are taken from patent US20040102454A1, “Phenylahistin and the phenylahistin analogs, a new class of anti-tumor compounds” (priority 1998, published 2004).

≈ marks a conversion by molar mass, not a printed value. Where “and” joins values, the source holds several entries; their conditions need not be identical. Equal entries are not always repeated. Where two headings read alike, the source gives them in different places.

In one data set the test system is P388 cells. As to the kind of experiment: P388 proliferation, Alamar Blue assay. The class given is cell-based, murine. Conditions: Mus musculus, P388; Alamar Blue assay (Table 4); read-out: IC50 for P388 Proliferation. The method, then:
For this example, the Alamar Blue™ assay was performed as follows. Exponentially growing P388 cells were seeded into 96-well tissue culture plates (5×10^3 cells/100 μl/well) and cultured in RPMI 1640 medium supplemented with 10% fetal bovine serum for 16 h. Compounds (DMSO solution) were then added to each well at various concentrations, and the cells were cultured for an additional 48 h. Living cells were counted using Alamar Blue™ (BioSource International, Camarillo, Calif.), according to the method of Ahmed, S. A. et al., J. Immunol. Methods, 170, 211 (1994).

Data set [1] has as its system Microtubule protein from bovine brain. In words: Microtubule protein polymerization assay (turbidity). The class given is biochemical. The settings on record: microtubule protein 1.5 mg/ml (Table 4); read-out: IC50 for Microtubule Protein Polymerization. The procedure:
Microtubule protein was prepared from bovine brain tissue by two cycles of assembly and disassembly according to the method of Tiwari, S. C. et al. Anal. Biochem, (1993), 215, 96-103. Tubulin was purified from microtubule protein by phosphocellulose chromatography see Algaier, J. et al. Biochim. Biophys. Acta, (1988), 954, 235-43, and tubulin purity was evaluated by polyacrylamide gel electrophoresis, as in Laemmli, U.K., Nature, (1970), […], 680-85. […] Protein concentrations were determined using the Coomassie® Protein Assay Reagent from Pierce (Rockford, Ill.).
Polymerization of microtubule protein was monitored by an increase in turbidity at 37° C. in microtubule assembly buffer containing 100 mM MES, 0.5 mM MgCl2, 1 mM EGTA and 1 mM GTP. See Johnson, K. A. et al., J. Mol. Biol., (1977), 117, 1-31. Polymerization of purified tubulin was measured using the same method except the microtubule assembly buffer contained 4 M glycerol. See Lee, J. C. et al., Biochemistry, (1975), 14, 5183-87. Microtubule protein and tubulin polymerization was initiated by a temperature shift from 0° C. to 37° C. and turbidity was measured on a DU-20 thermocontrolled spectrophotometer from Beckman (Fullerton, Calif.) at 360 nm. Drugs were dissolved in dimethyl sulfoxide (DMSO), which was used in all experiments at a final concentration of 2% (v/v).
For this example, the microtubule protein polymerization assay was performed as follows. Microtubule protein was prepared from bovine brain tissue by two cycles of assembly and disassembly. Polymerization of microtubule protein was monitored by an increase in turbidity at 37° C. in microtubule assembly buffer containing 100 mM MES, 0.5 mM MgCl2, 1 mM EGTA and 1 mM GTP. The polymerization of microtubule protein was initiated by a temperature shift from 0° C. to 37° C. Turbidity was measured on a thermo-controlled spectrophotometer (Beckman DU-20, Fullerton, Calif.) at 360 nm. Compounds were dissolved in DMSO, which was used in all experiments at a final concentration of 2% (v/v).

The next data set deals with PARP in Jurkat cells. In words: Cleavage of poly(ADP-ribose) polymerase (PARP), western blotting. The class given is cell-based. Conditions: 10 hours after exposure. The source says: In order to assess the ability of t-butyl-phenylahistin to induce apoptosis in Jurkat cells, cleavage of poly(ADP-ribose) polymerase (PARP) was monitored. PARP is a 116 kDa nuclear protein that is one of the main intracellular targets of Caspase-3. The cleavage of PARP generates a stable 89 kDa product, and this process can be easily monitored by western blotting. Cleavage of PARP by caspases is one of the hallmarks of apoptosis, and as such serves as an excellent marker for this process.

In another data set the test system is T. rubrum isolate #2. In words: Antifungal susceptibility testing, broth dilution (NCCLS M38-A). The class given is cell-based, Trichophyton rubrum. The settings on record: for MIC: 80% reduction in turbidity. The procedure:
(§1) Antifungal susceptibility testing was accomplished according to the methods outlined in the National Committee for Clinical Laboratory Standards, M38-A “Reference Method for Broth Dilution Antifungal Susceptibility Testing of Conidium-Forming Filamentous Fungi; Approved Standard.” This includes testing in RPMI-1640 with glutamine and without bicarbonate, an inoculum size of 0.4-5×10^4, and incubation at 30 or 35° C. for 48 hours. […] Drug concentrations were 0.03-16 μg/ml for the investigational compounds, 0.015-8 μg/ml for itraconazole and griseofulvin.
(§2) The minimum lethal concentration (MLC) was determined by plating […] from the MIC concentration and each concentration above the MIC. […] When a MIC was obtained, a minimum fungicidal concentration (MFC) was determined to assess the fungistatic/fungicidal nature of the compound. […] The compound is scored as fungistatic if the cells are able to resume growth and fungicidal if no regrowth is possible because the compound had killed the organisms.

In a further data set the test system is T. rubrum isolate #1. Described as above. The class given is cell-based, Trichophyton rubrum. The settings on record: T. rubrum isolate #1; for MIC: 80% reduction in turbidity. The method, then:
as §1, §2

Data set [2] concerns T. mentagrophytes isolate #1. The data set is described as above. Conditions: for MIC: 80% reduction in turbidity. The class given is cell-based, Trichophyton mentagrophytes. The method, then:
as §1, §2

The test system of data set [3] is T. mentagrophytes isolate #2. Described as above. The class given is cell-based, Trichophyton mentagrophytes. The settings on record: 80% reduction in turbidity. The method, then: as §1, §2
A further data set deals with E. floccosum isolate #2. The description is as above. The class given is cell-based, Epidermophyton floccosum. The procedure: as §1, §2
Another data set deals with E. floccosum isolate #1. The data set is described as above. The class given is cell-based, Epidermophyton floccosum. Conditions: 80% reduction in turbidity. The method, then: as §1, §2
Data set [4] has as its system MES-SA (Taxol Sensitive) human uterine sarcoma tumor cell line. In words: Drug resistant cell line pair, cytotoxicity. The class given is cell-based. The settings on record: CsA Pretreat versus No CsA. An excerpt:
MES-SA (Taxol Sensitive) and MES-SA DX (Taxol Resistant). This cell line expresses elevated mdr-1 mRNA and P-glycoprotein (an extrusion pump mechanism). Pretreatment with cyclosporin-A (CsA) blocks P-glycoprotein and reinstates activity in the resistant cell line for those compounds for which the resistance is due to elevated P-glycoprotein.

The subject of data set [5] is tubulin in Human umbilical vein endothelial cells (HuVEC). In words: Action on microtubule function, staining for α-tubulin. The settings on record: 2 μM, thirty minutes exposure. The class given is cell-based.
The subject of data set [6] is microtubules in A549 cells. As to the kind of experiment: Immunofluorescence staining of microtubules. The class given is cell-based, human. The settings on record: 6 hours incubation. The procedure: Immunocytochemical staining was performed using the method described by Yahara, I. et al., Cell (1978) 15, 251-259. A549 cells were cultured on glass coverslips and incubated with the test drug for 6 hours. The cells were then fixed with 3.7% formaldehyde for 30 min, permeabilized with 0.2% Triton X-100 for 5 min, and incubated with a mouse monoclonal antibody against α-tubulin (Calbiochem®, Oncogene Research Products, Cambridge, Mass.), followed by incubation with fluorescein isothiocyanate-conjugated goat anti-mouse IgG from Cosmo Bio Co., (Tokyo, Japan), and the cells were examined under an immunofluorescent microscope.

In another data set the test system is HuVEC monolayer. In words: HuVEC monolayer permeability to FITC-Dextran. The class given is cell-based, human. Conditions: FITC-Dextran. An excerpt:
This vascular collapse is preceded by a rapid induction of vascular cell permeability initially to electrolytes and soon after to large molecules. The enhanced permeability of HuVEC cells to a fluorescent-labeled dextran is used as a proxy assay for vascular collapse.

The test system of data set [7] is DU-145 human prostate tumor. As to the kind of experiment: DU-145 Human Prostate Tumor Xenograft Model. The settings on record: Taxotere alone. The class given is in vivo, nude mice. The procedure:
Male mice were implanted s.c. by trocar with fragments of DU-145 tumors harvested from s.c. growing tumors in nude male mice hosts. When the tumors reached ˜5 mm×5 mm ( at about 13-17 days) the animals were matched into treatment and control groups. The remainder of the study proceeded as for the HT-29 model, using taxotere as the standard chemotherapy agent.
In this model unless otherwise noted for the individual study, test compound was administered via the intraperitoneal route on Days 1, 3, 5, 8 and 11 (q3d×5); taxotere was administered intravenously on Days 1, 3 and 5 (q2d×3).
The study involved an assessment of t-butyl-phenyalhistin alone and in combination with taxotere.

The next data set deals with bovine brain tubulin. In words: [^3H]CLC binding to tubulin and competition assay. The procedure: [^3H]CLC binding to tubulin was evaluated by the ultrafiltration method of Takahashi, M., et al., Biochim. Biophys. […] The concentration of unbound [^3H]CLC in the filtrates was determined using a EcoLite™(+) liquid scintillator from ICN Pharmaceuticals Inc. (Costa Mesa, Calif.). Specific bound [^3H]CLC concentrations were determined by adding an excess (×100) of unlabeled CLC to the reaction mixture.
For the competition assay, bovine brain tubulin (0.2 mg/ml) was incubated in the microtubule assembly buffer with 0.5 μM [^3H]CLC and various concentrations of competitors for 20 min at 37° C. [^3H]CLC binding was measured as described above.

The subject of another data set is A. fumigatus isolate #2. In words: Antifungal susceptibility testing, broth dilution (NCCLS M38-A). The class given is cell-based. The settings on record: Aspergillus fumigatus, 80% reduction in turbidity. The method, then: as §1, §2
Another data set deals with A. fumigatus isolate #1. The description is as above. The class given is cell-based. The settings on record: Aspergillus fumigatus, 80% reduction in turbidity. The procedure:
as §1, §2

[8] abbreviates: Trichophyton rubrum, read-out: MIC.
[9] abbreviates: Trichophyton mentagrophytes, read-out: MIC.

Consider `Cc1[nH]cnc1C=C1NC(=O)C(Cc2ccccc2)NC1=O` (centres unmarked) [Compound 9], for which the melting point was 285 to 286 °C (dec.). In addition, the IC50 in the data set on P388 cells worked out at 7.5 µM. The IC50 in data set [1] was more than 200 µM.
In the case of `C=CC(C)(C)c1nc[nH]c1/C=C1\NC(=O)C(Cc2ccccc2)NC1=O` (centres unmarked) [Halimide], the “cleavage of PARP” value in the data set with PARP in Jurkat cells is reported as “active at inducing cleavage of PARP”.
In the case of `C=CC(C)(C)c1[nH]cnc1/C=C1\NC(=O)[C@H](Cc2ccccc2)NC1=O` [NPI2350], the MFC (against T. rubrum isolate #2; in [2]) was more than 16 µg/mL each time. The minimum inhibitory concentration (MIC) in the data set with T. rubrum isolate #2 was 0.16 µg/mL (≈ 0.457 µM); against T. rubrum isolate #1 it was more than 16 µg/mL; in data set [2] it was 16 µg/mL (≈ 45.7 µM); in data set [3] it was more than 16 µg/mL; in the data set on E. floccosum isolate #1, more than 16 µg/mL. Moreover, in the data set with E. floccosum isolate #2, the “MICs and MFCs” value was more than 16 µg/mL.
For `CC(C)(C)c1[nH]cnc1/C=C1\NC(=O)[C@H](Cc2ccccc2)NC1=O` [NPI2460], the MFC in the data set with T. rubrum isolate #2 is less than 0.03 µg/mL; with T. rubrum isolate #1 it was 0.125 µg/mL (≈ 0.369 µM); in [2], more than 16 µg/mL. Also, the minimal inhibitory concentration (MIC) in the data set with T. rubrum isolate #2 was less than 0.03 µg/mL; in the data set with T. rubrum isolate #1, less than 0.03 µg/mL; in [2], 4 µg/mL (≈ 11.8 µM); in [3], more than 16 µg/mL; with E. floccosum isolate #1 it was more than 16 µg/mL. For the same compound, in the data set with E. floccosum isolate #2, the “MICs and MFCs” value was more than 16 µg/mL.
Consider `CC(=O)O[C@H]1C(=O)[C@@]2(C)[C@H]([C@H](OC(=O)c3ccccc3)[C@]3(O)C[C@H](OC(=O)[C@H](O)[C@@H](NC(=O)c4ccccc4)c4ccccc4)C(C)=C1C3(C)C)[C@]1(OC(C)=O)CO[C@@H]1C[C@@H]2O` [Taxol, paclitaxel, reference compound], for which, in data set [4], the “Ratio No CsA” value was 0.6 and 0.4. For the same compound, in data set [5], the microtubule depolymerization entry is given as “did not induce microtubule depolymerization”. In addition, the “microtubule structure (anti α-tubulin staining)” value in [6] is “thick microtubule bundles and multiple bright fluorescent aster formation”. In addition, the HuVEC monolayer permeability entry in the data set on HuVEC monolayer was “inactive”.
With `CC(=O)O[C@@]12CO[C@@H]1C[C@H](O)[C@@]1(C)C(=O)[C@H](O)C3=C(C)[C@@H](OC(=O)[C@H](O)[C@@H](NC(=O)OC(C)(C)C)c4ccccc4)C[C@@](O)([C@@H](OC(=O)c4ccccc4)[C@H]21)C3(C)C` [Taxotere, reference compound], the “NCI established criterion for a positive effect (TGA 58%)” value in data set [7] is on record as “did not reach the NCI established criterion”.
Regarding `CC[C@]1(O)C[C@@H]2CN(CCc3c([nH]c4ccccc34)[C@@](C(=O)OC)(c3cc4c(cc3OC)N(C)[C@H]3[C@@](O)(C(=O)OC)[C@H](OC(C)=O)[C@]5(CC)C=CCN6CC[C@]43[C@@H]65)C2)C1` [VLB, vinblastine, reference compound], the “effect on CLC binding to tubulin” value in the data set on bovine brain tubulin is given as “slightly enhanced”.
In the case of `COC1=CC(=O)C[C@@H](C)[C@]12Oc1c(Cl)c(OC)cc(OC)c1C2=O` [griseofulvin, reference compound], the MIC against A. fumigatus isolate #2 was 0.5 µg/mL (≈ 1.42 µM); in the data set on T. rubrum isolate #2 (setting [8]), less than 0.015 µg/mL; in the data set on T. rubrum isolate #1 (setting [8]), 0.5 µg/mL (≈ 1.42 µM); in data set [2] (setting [9]), 1 µg/mL (≈ 2.83 µM); in [3] (setting [9]), 2 µg/mL (≈ 5.67 µM); with E. floccosum isolate #1 (Epidermophyton floccosum, read-out: MIC), 2 µg/mL (≈ 5.67 µM). Further, in the data set with E. floccosum isolate #2 (Epidermophyton floccosum, read-out: MICs and MFCs), the MFC was 4 µg/mL (≈ 11.3 µM).
The compound `CCC(C)n1ncn(-c2ccc(N3CCN(c4ccc(OCC5COC(Cn6cncn6)(c6ccc(Cl)cc6Cl)O5)cc4)CC3)cc2)c1=O` (centres unmarked) [itraconazole, reference compound] came in with a minimum inhibitory concentration (MIC) with A. fumigatus isolate #1 of 1 µg/mL (≈ 1.42 µM).
